Assay results as given in PMC11017252, “Copper(II) Complexes with 2,2′:6′,2″-Terpyridine Derivatives Displaying Dimeric Dichloro−μ–Bridged Crystal Structure: Biological Activities from 2D and 3D Tumor Spheroids to In Vivo Models” (Journal of Medicinal Chemistry, 2024).

Columns and labels:
[1] = test system: HCT116, A2780, A549, and MCF7 cell lines; design: method as in PMID 28702618; conditions: cited from earlier work
[2] = test system: CAM; design: method as in PMID 33823390; conditions: cited from earlier work
[3] = test system: pUC18 plasmid DNA; assay: pDNA cleavage in vitro (agarose gel electrophoresis); format: biochemical, E. coli; conditions: for concentration at which the interaction with pDNA reaches saturation / pDNA cleavage mode: 100 ng pUC18, 24 h; for pDNA cleavage mode: 5–100 μM complex; for effect of NaN3 (singlet oxygen scavenger) on pDNA cleavage by the complex: 24 h, 50 μM complex + 50 μM NaN3
[4] = test system: BAX and BCL-2; assay: BAX and BCL-2 protein expression by Western Blot; format: cell-based, human; conditions: HCT116DoxR, 48 h, IC50; normalized to β-actin
[5] = test system: A2780 (ovarian carcinoma cell line); assay: MTS cell viability assay, 2D culture, A2780; format: cell-based, human; conditions: 48 h of exposure
Procedure: (§1) The in vitro cytotoxic potential of Cu(II) complexes in tumor and healthy cells was assessed using the MTS assay, a colorimetric method that allows the quantification of viable cells in culture.[46]
Cell culture and maintenance
(§2) The cancer cell lines HCT116 (colorectal carcinoma) and A2780 (ovarian carcinoma) were obtained
(§3) from the American Type Culture Collection (ATCC®, Manassas, VA, USA), as well as the normal
human primary dermal fibroblasts.
(§4) Apart from the A2780 cell line, which was cultured in Roswell Park Memorial Institute (RPMI)
(§5) medium, all cells were cultured in Dulbecco’s modified Eagle medium (DMEM). Both media were
(§6) supplemented with 10% (v/v) fetal bovine serum (FBS) and 1% (v/v) of a Pen/Strep
(§7) (Penicillin/Streptomycin) solution. To maintain the resistant phenotype of the HCT116DoxR cell line,
(§8) the medium was additionally supplemented with 3.6 μM Dox4. All media and supplements were
(§9) purchased from Thermo Fischer Scientific (Waltham, MA, USA).
(§10) Cells were maintained in 25 cm2 T-flasks (T25) in a humidified atmosphere at 37 °C and 5% (v/v) CO
(§11) (SANYO CO2 Incubator, Electric Biomedical Co., Osaka, Japan).
(§12) The effect of Cu(II) complexes on cell viability was studied in HCT116, HCT116DoxR, and A2780
(§13) cancer cell lines and in normal human primary fibroblasts. Cells were seeded in a density of 0.75×105
(§14) cells/mL into 96-well plates and incubated in a humidified atmosphere at 37 °C and 5% (v/v) CO2 for
(§15) 24 h. After incubation, complexes were weighed, immediately solubilized in 100% (v/v) DMSO and
(§16) diluted for the final concentration with cell culture medium. The medium in each well was replaced by
(§17) a solution of fresh medium containing each Cu(II) complex (concentrations ranging from 0.01 μM to
(§18) as negative and positive controls, respectively.
(§19) Following a second incubation period of 48 h in the same conditions, the supernatant of each well was
(§20) replaced by a solution containing MTS reagent (3-(4,5-dimethylthiazol-2-yl)-5-(3-
(§21) carboxymethoxyphenyl)-2-(4-sulfophenyl)-2H-tetrazolium) provided by the CellTiter 96® AQueous
(§22) Non-Radioactive Cell Proliferation Assay Kit (Promega, Madison, WI, EUA) for a 30 minutes
(§23) incubation. The percentage of viable cells was indirectly determined by the spectrophotometric
(§24) quantification at 490 nm in a microplate reader, Tecan Infinite M200 (Tecan, Männedorf, Switzerland)
(§25) of formazan production, resultant from the reduction of the MTS reagent by mitochondrial
(§26) dehydrogenases. Since these enzymes are only active in viable cells, the absorbance value measured is
(§27) directly proportional to the percentage of viable cells in culture5.
(§28) By analysing the cell viability as a function of log10(concentration) using Prism 8 (GraphPad
(§29) in cell viability) of each complex in the respective cell line at 48 h. The selective index (SI) for each
(§30) complex was also determined by dividing the IC50 of human fibroblasts by the respective IC50 in each
(§31) cancer cell line (allowing us to understand how much active a complex is in tumor versus normal cell).

[6] = test system: HCT116DoxR cells; assay: Annexin V-FITC/PI apoptosis assay by flow cytometry; conditions: 48 h; for cells (%) early apoptosis / cells (%) late apoptosis / cells (%) necrosis / cells (%) viable / percentage of apoptosis (early + late): complexes at IC50, Dox 6 μM, cisplatin 5 μM; for fold increase in apoptotic cells, normalized to DMSO: complexes at IC50, cisplatin 5 μM
Procedure: To evaluate the cell death mechanism involved in the cytotoxic effect of the selected complexes, a double-staining with Annexin V-FITC and PI was performed. […] The use of Annexin V conjugated with the fluorophore FITC allows the quantification of this interaction and subsequent identification of cells in apoptosis by flow cytometry. Furthermore, PI is a fluorophore that can intercalate with DNA and that can only enter the cell when the membrane is either compromised or ruptured, making it possible to identify cells undergoing late apoptosis and necrosis. Therefore, the double staining makes it possible to distinguish between viable cells (FITC^–; IP^–), those undergoing initial apoptosis (FITC^+; IP^–), those undergoing late apoptosis (FITC^+; IP^+), and those undergoing necrosis (FITC^–; IP^+).[55],[58]
Evaluation of apoptosis induction in HCT116DoxR cell line by flow cytometry The induction of apoptosis in HCT116DoxR cell line was evaluated by flow cytometry, using the
Annexin V-FITC Apoptosis Detection Kit (Thermo Fisher Scientific, Waltham, MA, USA). Cells
were seeded in 6-well plates at a cell density of 1×10^5 cells/mL and incubated for 24 h. Afterwards,
culture medium was replaced by medium with different Cu(II) complexes at their IC50 concentrations.
After 48 h of incubation, cells were washed with PBS 1x, detached from each well with TrypLETM
Express and washed again with PBS 1x. Cells were then resuspended in 1x annexin-binding buffer and
incubated at rt for 15 min with Annexin V-FITC and 100 μg/mL PI.
All samples were analysed by an Attune® Acoustic Focusing Flow Cytometer (Thermo Fischer
Scientific, Waltham, MA, USA) and the results were processed with Attune® Cytometric software

[7] = test system: HCT116DoxR spheroids; assay: MTS cell viability assay in 3D HCT116DoxR spheroids; format: cell-based, human; conditions: 6-day-old spheroids, 48 h of exposure
[8] = test system: chicken embryos; assay: Ex-ovo chick chorioallantoic membrane (CAM) assay; format: in vivo; conditions: IC50, vs DMSO control
[9] = test system: HCT116DoxR cells; assay: Cell cycle progression (PI, flow cytometry); conditions: for cell cycle progression after 12 h / cell cycle progression after 18 h: IC50, thymidine double block
Source text: Therefore, we have assessed the cytostatic potential of complexes 2, 3, 5, and 7, and their ability to interfere with the progression of the cell cycle using the fluorescent marker PI. Since this marker can intercalate with DNA, the measurement of the fluorescence emitted by flow cytometry makes it possible to assess the DNA content at each stage of the cell cycle (G0/G1, S, and G2/M).[67] To ensure that all the cells were in the same phase before their exposure to the complexes, a double block was carried out with thymidine, a DNA synthesis inhibitor.[67]
HCT116DoxR cell line was seeded in 6-well plates in a density of 1×10^5 cells/mL and incubated for
24 h. Afterwards, the culture medium was replaced by medium with IC50 concentrations of different
HCT116DoxR cell line was seeded in 6-well plates in a density of 1×10^5 cells/mL, incubated for 8 h in
a humidified atmosphere at 37 °C and 5% (v/v) CO2, and later synchronized in early S-phase with a 2
mM thymidine solution (Merck, Germany) for a 16 h period. Later, medium with thymidine was
replaced by fresh media and, after 8 h a second block with thymidine was performed in the same
concentrations of Cu(II) complexes. 0.1% (v/v) DMSO was used as the vehicle control while 5 μM
After treatment, cells were incubated for 9, 12,

[10] = test system: fibroblasts; assay: Cell migration (wound healing) assay; format: cell-based, human; conditions: 24 h; complexes at IC50, Dox 0.4 μM; vs DMSO
Source text: A wound healing assay was therefore carried out on fibroblasts to study the influence of the Cu(II) complexes on cell migration in vitro. Skin fibroblasts were the model chosen for this assay as they are essential for regenerating damage in this tissue.[85] […]
intrinsic binding constant Kb can be obtained from the ratio of the slope to the intercept of the linear fit of the plot [DNA]/[εa−εf] versus [DNA].
For emission quenching experiments, equimolar solution of ct-DNA and ethidium bromide (EB, Sigma Aldrich) was prepared and allowed to incubate for 2 h in the dark. The tested complexes were titrated into the formed EB–ct-DNA adduct and incubated for additional 30 min. The final concentration of the EB–ct-DNA adduct was 50 μM and the concentration of the complexes varied from 0 to 40 μM. The fluorescence spectra were recorded on FLS-980 spectrofluorometer (Edinburgh Instruments, Livingston, United Kingdom) with excitation wavelength 515 nm and emission wavelength of 620 nm. The apparent binding constant (Kapp) was calculated using the Equations : […]
where I0 and I are the fluorescence intensity in the absence and presence of the complexes; KSV is the Stern-Volmer quenching constant; [Q] is the concentration of the complexes; [Q1/2] is the concentration of the complex causing 50% reduction in the fluorescence intensity; K = 1×107 […]
conditions mentioned before until the presence of a confluent monolayer was detected. A scratch was made on the surface of each well using a sterile 200 μL micropipette tip and the cells were […]
Each plate was then incubated for 24 h in the same conditions mentioned before. […]
The width of each scratch in each image was measured via ImageJ software. […]
The ex-ovo CAM assay was performed to evaluate the copper(II) complexes’ effect on angiogenesis, as already described in literature11,12. […] Newly formed blood vessels were manually counted via ImageJ software. […]
All results were expressed as mean ± SEM of at least two independent biological assays, each obtained by technical duplicates, unless otherwise specified. […]

[11] = test system: EB–ct-DNA adduct; assay: Ethidium bromide displacement fluorescence assay; format: binding, calf; conditions: PBS; for apparent binding constant (Kapp): EB displacement, KEB = 1 × 10^7 M^–1; for Stern–Volmer quenching constant KSV: EB–ct-DNA, 0–40 μM complex
[12] = Stability and solubility in biological medium (RPMI) by UV-vis; format: physicochemical; conditions: colorless RPMI, 50 μM, 37 °C
Procedure: The stability of complexes 2, 3, 5, and 7 was assessed by UV–vis spectroscopy at 0, 24, and 48 h of incubation at 37 °C.
In Figure S18, it is possible to observe the spectra of all Cu(II) complexes, where high-energy absorption bands correspond to π → π* and n → π* transitions with peaks in the 230–330 and 330–400 nm ranges, respectively, that are associated with the aromatic rings of terpyridines.[39],[49] Analyzing the spectra of complexes 2 and 3, it is possible to detect the existence of 3 bands (maximum ∼240, ∼ 290, and between 320 and 340 nm). […] Complex 7 only has 2 bands of maximum absorbance at 290 nm and between 320 and 340 nm.
Nevertheless, all Cu(II) complex solutions were freshly prepared and added immediately to cells.

[13] = test system: HCT116DoxR (Dox-resistant colorectal carcinoma cell line); assay: MTS cell viability assay, 2D culture, HCT116DoxR; conditions: read-out: IC50 (μM) HCT116DoxR, 48 h of exposure
Procedure: as §1
In this regard, cell viability was performed for each of the ligands on HCT116DoxR and fibroblasts.
Cell culture and maintenance
as §2, §3
human primary dermal fibroblasts.
as §4, §5, §6, §7, §8, §9, §10, §11, §12, §13, §14, §15, §16, §17, §18, §19, §20, §21, §22, §23, §24, §25, §26, §27

[14] = test system: HCT116 (colorectal carcinoma cell line); assay: MTS cell viability assay, 2D culture, HCT116; format: cell-based, human; conditions: 48 h of exposure
Procedure: as §1
Cell culture and maintenance
as §2, §3
human primary dermal fibroblasts.
as §4, §5, §6, §7, §8, §9, §10, §11, §12, §13, §14, §15, §16, §17, §18, §19, §20, §21, §22, §23, §24, §25, §26, §27, §28, §29, §30, §31

[15] = test system: normal human primary dermal fibroblasts; assay: MTS cell viability assay, normal fibroblasts; format: cell-based; conditions: 48 h of exposure
Procedure: as §1
Cell culture and maintenance
as §2, §3
human primary dermal fibroblasts.
as §4, §5, §6, §7, §8, §9, §10, §11, §12, §13, §14, §15, §16, §17, §19, §20, §22, §23, §24, §25

Structure (SMILES) | concentration at which the interaction with pDNA reaches saturation [3] | pDNA cleavage mode [3] | effect of NaN3 (singlet oxygen scavenger) on pDNA cleavage by the complex [3] | expression of BAX compared to the DMSO control [4] | expression of BCL-2 compared to the DMSO control [4] | IC50 [5] | cells (%) early apoptosis [6] | cells (%) late apoptosis [6] | cells (%) necrosis [6] | cells (%) viable [6] | percentage of apoptosis (early + late) [6] | fold increase in apoptotic cells, normalized to DMSO [6] | IC50 [7] | formation of new blood vessels after 24 h [8] | formation of new blood vessels after 48 h [8] | cell cycle progression after 12 h [9] | fibroblast migration (% of remission) [10] | apparent binding constant (Kapp) [11] | Stern–Volmer quenching constant KSV [11] | maximum absorbances after 24 or 48 h compared to 0 h (reduction of solubility) [12] | other results
Cn1cccc1-c1cc(-c2ccccn2)nc(-c2ccccn2)c1.[Cl][Cu][Cl] | – | – | – | – | – | – | – | – | – | – | – | – | – | – | – | – | – | – | – | – | cytotoxic activity [1]: no cytotoxic activity
F[P-](F)(F)(F)(F)F.[Cl][Cu].c1ccc(-c2cc(-c3ccc4ccccc4n3)cc(-c3ccccn3)n2)nc1 [[Cu(4′-(2-quinolinyl)-terpy)Cl](PF6)] | – | – | – | – | – | – | – | – | – | – | – | – | – | – | – | – | – | – | – | – | toxicity in an in vivo model of CAM [2]: low toxicity
F[P-](F)(F)(F)(F)F.F[P-](F)(F)(F)(F)F.[Cl][Cu].[Cl][Cu].c1ccc(-c2cc(-c3ccnc4ccccc34)cc(-c3ccccn3)n2)nc1.c1ccc(-c2cc(-c3ccnc4ccccc34)cc(-c3ccccn3)n2)nc1 [complex 2, [Cu2Cl2(4′-(4-Quinolyl)-terpy)2](PF6)2] | 25 μM | single strands | no effect | decreases | increases | 0.54 ± 0.07 µM | 47.3 ± 2.9% | 22.7 ± 4.6% | 0.3 ± 0.4% | 29.7 ± 6.3% | 65 to 70% | ~6.4 fold | 15.2 ± 0.8 µM | no pro- or antiangiogenic effect | antiangiogenic effect | delays cell cycle progression in the G2/M phase | lower compared to the positive control Dox | 1.23 × 10^6 M^–1 | 2450 M⁻¹ | slight decrease | cell cycle progression after 24 h ([9]; 24 h, complexes at IC50, cisplatin 5 μM): delay the cycle in the G2/M phase; IC50 [13]: 0.25 ± 0.02 µM; IC50 [14]: 0.31 ± 0.01 µM; IC50 [15]: 31.36 ± 0.02 µM
COc1ccc(-c2cc(-c3ccccn3)nc(-c3ccccn3)c2)c2ccccc12.COc1ccc(-c2cc(-c3ccccn3)nc(-c3ccccn3)c2)c2ccccc12.F[P-](F)(F)(F)(F)F.F[P-](F)(F)(F)(F)F.[Cl][Cu+].[Cl][Cu+] [complex 3, [Cu2Cl2(4′-(4-Methoxy-1-naphthyl)-terpy)2](PF6)2] | 50 μM | single strands | partially reversed | decreases | increases | 0.66 ± 0.07 µM | 51.3 ± 5.7% | 14.9 ± 3.6% | 0.2 ± 0.2% | 33.7 ± 3.6% | 65 to 70% | ~6.4 fold | 6.35 ± 0.12 µM | antiangiogenic potential | greater decrease in the % of blood vessels formed | delays cell cycle progression in the G2/M phase | lower compared to the positive control Dox | 3.07 × 10^6 M^–1 | 6060 M⁻¹ | slight decrease | cell cycle progression after 18 h [9]: delay in cycle progression in the G0/G1 phase; IC50 [13]: 0.15 ± 0.01 µM; IC50 [14]: 0.13 ± 0.02 µM; IC50 [15]: 6.24 ± 0.03 µM
F[P-](F)(F)(F)(F)F.F[P-](F)(F)(F)(F)F.[Cl][Cu].[Cl][Cu].c1ccc(-c2cc(-c3ccco3)cc(-c3ccccn3)n2)nc1.c1ccc(-c2cc(-c3ccco3)cc(-c3ccccn3)n2)nc1 [complex 5, [Cu2Cl2(4′-(2-Furanyl)-terpy)2](PF6)2] | 50 μM | single and double strands | almost completely reversed | decreases | increases | 0.79 ± 0.05 µM | 47.2 ± 10.2% | 18.7 ± 5.4% | 0.2 ± 0.2% | 33.9 ± 5.3% | 65 to 70% | ~6.4 fold | 14 ± 0.6 µM | antiangiogenic potential | greater decrease in the % of blood vessels formed | delays cell cycle progression in the G2/M phase | lower compared to the positive control Dox | 1.84 × 10^6 M^–1 | 3640 M⁻¹ | slight decrease | cell cycle progression after 18 h [9]: delay in cycle progression in the G0/G1 phase; IC50 [13]: 0.22 ± 0.01 µM; IC50 [14]: 0.26 ± 0.03 µM; IC50 [15]: 12.57 ± 0.02 µM
